From patent US10640507B2, “PBD antibacterial agents” (KING'S COLLEGE LONDON, priority 2015, dated 2020)
Values after ≈ are worked out from the molar mass of the structure shown. Where two headings read alike, the source gives them in different places.

Experiments:
Assay type in all cases: cell-based
[1] = system: HeLa (Cervical cancer cell line); experiment: MTT cytotoxicity assay; settings: Homo sapiens, read-out: IC50 HeLa (Cervical cancer cell line)
Experimental: (§1) Two immortalised human cell lines, HeLa and WI38 were used for cytotoxicity screening of the compounds. HeLa is a human cervical cancer cell line and WI38 is a normal healthy cell line. The cell lines were obtained from the American Type Culture Collection. The cell-lines were maintained in monolayer culture in 75 cm2 flasks (TPP, Switzerland) under a humidified 5% CO2 atmosphere at 37° C. The HeLa cell line was maintained in Dulbecco's Modified Eagles Media (DMEM; Invitrogen) supplemented with foetal bovine serum (10% v/v; Invitrogen), L-glutamine (2 mM; Invitrogen), non-essential amino acids (1×; Invitrogen) and Penicillin-Streptomycin (1% v/v, Invitrogen). For WI38, Eagle's Minimum Essential Medium, and Penicillin-Streptomycin (1% v/v, Invitrogen) and foetal bovine serum (10%, nvitrogen) was used. For passaging, cells were washed with phosphate buffered saline [PBS] (GIBCO 14040, Invitrogen, UK), incubated with trypsine (GIBCO 25300, Invitrogen, UK), and re-seeded into fresh medium. For seeding, cells were counted using a Neubauer haemocytometer (Assistant, Germany) by microscopy (Nikon, USA) on a non-adherent suspension of cells that were washed in PBS, trypsinised, centrifuged at 8° C. at 8000 rpm for 5 min and re-suspended in fresh medium.
(§2) The cells were grown in normal cell culture conditions at 37° C. under a 5% CO2 humidified atmosphere using appropriate medium. The cell count was adjusted to 10^5 cells/ml/ and 20,000 cells were added per well. The cells were incubated for 24 hours and 1 μl of the appropriate inhibitor concentrations were to the wells in triplicates. After 24 h of continuous exposure to each compound, the cytotoxicity was determined using the MIT (3-(4,5-Dimethylthiazol-2-yl)-2,5-diphenyltetrazolium bromide) (Lancaster Synthesis Ltd, UK) colorimetric assay. Absorbance was quantified by spectrophotometry at λ=570 nm (Envision Plate Reader, PerkinElmer, USA). IC50 values were calculated by a dose-response analysis using the Prism Graphpad Prism® software. The cytotoxicity results are shown below in Table 12.

[2] = system: WI38 (Healthy cell line); experiment: MTT cytotoxicity assay; settings: Homo sapiens, read-out: IC50 WI38 (Healthy cell line)
Experimental: as §1, §2

[3] = system: E. faecalis VSE NCTC 775; experiment: General MIC protocol, Gram positive panel; settings: Enterococcus faecalis, NCTC775; VSE 775
Experimental: (§3) General Minimum Inhibitory Concentration (MIC) Protocol
(§4) 1. Grow up cultures of bacterial strains to be tested overnight.
(§5) 2. Dilute down overnight cultures to concentration of 1×10^6 bacteria/ml (OD0.01) in Tryptic soy broth (TSB).
(§6) 3. Add 100 μl of TSB media to column 2-column 12 in 96 well plate (keeping column 1 clear).
(§7) 4. Make up compound to a concentration of 64 μg/ml in water (or alternatively to twice the chosen maximum concentration to be tested).
(§8) 5. Add 100 μl of antibiotic solution to the 1st and 2nd columns.
(§9) 6. Using a multichannel pipette take 100 μl from the 2nd column wells and pipette into 3rd column wells and repeat down the 96 well plate (remembering to include controls i.e. uninfected media and media with no antibiotic).
(§10) 7. To each well (except uninfected control row H) add 100 μl of bacterially infected media at a concentration of 1×10^6/ml.
(§11) 8. This dilutes down the concentration of the antibiotic by half (top dose is therefore 32 μg/ml in column 1) and also gives you a starting bacterial concentration of 5×10^5/ml.
(§12) 9. Wrap plate with parafilm to prevent evaporation.
(§13) 10. Leave at desired temperature (37° C. unless specified elsewhere) for 20 hours.
(§14) 11. Next day check plates for growth and measure optical density (i.e. absorbance) at a wavelength of 600 nm (OD600).
(§15) An example of such a plate is shown in FIG. 1 where column A represents wells that receive the top dose 100 μl; column B represents wells that receive the top dose 100 μl+100 μl TSB; and column C represents wells that receive 100 μl TSB. Row H which is marked by a box labelled D represents a blank where the cells receive no bacteria.

[4] = system: E. faecium VRE NCTC 12204; experiment: General MIC protocol, Gram positive panel
Experimental: as §3, §4, §5, §6, §7, §8, §9, §10, §11, §12, §13, §14, §15

[5] = system: EMRSA-16; experiment: General MIC protocol, Gram positive panel
Experimental: as §3, §4, §5, §6, §7, §8, §9, §10, §11, §12, §13, §14, §15

[6] = system: EMRSA-15; experiment: General MIC protocol, Gram positive panel
Experimental: as §3, §4, §5, §6, §7, §8, §9, §10, §11, §12, §13, §14, §15

[7] = system: methicillin sensitive S. aureus ATTC 9144 (NCTC 6571); experiment: General MIC protocol, Gram positive panel; settings: Staphylococcus aureus, MSSA / NCTC 6571; MSSA 9144
Experimental: as §3, §4, §5, §6, §7, §8, §9, §10, §11, §12, §13, §14, §15

[8] = system: E. faecalis VRE NCTC 12201; experiment: General MIC protocol, Gram positive panel
Experimental: as §3, §4, §5, §6, §7, §8, §9, §10, §11, §12, §13, §14, §15

[9] = system: A. baumannii NCTC 17978; experiment: General MIC protocol, Gram negative; settings: Acinetobacter baumannii, NCTC17978
Experimental: as §3, §4, §5, §6, §7, §8, §9, §10, §11, §12, §13, §14, §15

[10] = system: K. pneumonia M6; experiment: General MIC protocol, Gram negative; settings: Klebsiella pneumoniae; KP-M6
Experimental: as §3, §4, §5, §6, §7, §8, §9, §10, §11, §12, §13, §14, §15

[11] = system: P. aeruginosa PA01; experiment: General MIC protocol, Gram negative; settings: Pseudomonas aeruginosa, PA01, PA01
Experimental: as §3, §4, §5, §6, §7, §8, §9, §10, §11, §12, §13, §14, §15

[12] = system: K. pneumonia NCTC 13368; experiment: General MIC protocol, Gram negative; settings: Klebsiella pneumoniae, NCTC13368
Experimental: as §3, §4, §5, §6, §7, §8, §9, §10, §11, §12, §13, §14, §15

[13] = system: P. aeruginosa NCTC 13437; experiment: General MIC protocol, Gram negative; settings: Pseudomonas aeruginosa, NCTC13437
Experimental: as §3, §4, §5, §6, §7, §8, §9, §10, §11, §12, §13, §14, §15

[14] = system: A. baumannii AYE; experiment: General MIC protocol, Gram negative; settings: Acinetobacter baumannii
Experimental: as §3, §4, §5, §6, §7, §8, §9, §10, §11, §12, §13, §14, §15

[15] = WI-38, MTT, 24 h continuous exposure, highest concentration tested 20 μM

SMILES | IC50 ([1]; MTT, 24 h continuous exposure) [µM] | IC50 [2, 15] [µM] | MIC [3] [µg/mL] | MIC [4] [µg/mL] | MIC [5] [µg/mL] | MIC [6] [µg/mL] | MIC [7] [µg/mL] | MIC [8] [µg/mL] | MIC [9] [µg/mL] | MIC [10] [µg/mL] | MIC [11] [µg/mL] | MIC [12] [µg/mL] | MIC [13] [µg/mL] | MIC [14] [µg/mL] | IC50 ([1]; 24 h) [µM] | IC50 ([2]; WI-38, 24 h) [µM]
COc1cc2c(cc1OCCCC(=O)Nc1cc(C(=O)Nc3ccc4sc(C(=O)N5CCSCC5)cc4c3)n(C)c1)N=C[C@@H]1CCCN1C2=O [PP-B15, (S)-4-(4-((7-methoxy-5-oxo-2,3,5,11a-tetrahydro-1H-benzo-[e]pyrrolo[1,2-a][1,4]diazepin-8-yl)oxy)butanamido)-1-methyl-N-(2-(thiomorpholine-4-carbonyl)benzo[b]thiophen-5-yl)-1H-pyrrole-2-carboxamide] | > 20 | > 20 | < 0.125 | < 0.125 | < 0.125 | < 0.125 | < 0.125 | < 0.125 | 2 (≈ 2.8 µM) | > 128 | 64 (≈ 89.5 µM) | 2 (≈ 2.8 µM) | 32 (≈ 44.8 µM) | 2 (≈ 2.8 µM) |  | 
CCN(CC)C(=O)c1cc2cc(NC(=O)c3cc(NC(=O)CCCOc4cc5c(cc4OC)C(=O)N4CCC[C@H]4C=N5)cn3C)ccc2s1 [PP-B28] | > 20 | > 20 | 1 (≈ 1.46 µM) | 1 (≈ 1.46 µM) | 4 (≈ 5.84 µM) | 1 (≈ 1.46 µM) | 0.5 (≈ 0.73 µM) | 0.5 (≈ 0.73 µM) | 4 (≈ 5.84 µM) | 8 (≈ 11.7 µM) | 128 (≈ 187 µM) | 64 (≈ 93.5 µM) | 32 (≈ 46.7 µM) | 4 (≈ 5.84 µM) |  | 
COc1cc2c(cc1OCCCC(=O)Nc1cc(C(=O)Nc3ccc4oc(C(=O)N5CCCCC5)cc4c3)n(C)c1)N=C[C@@H]1CCCN1C2=O [PP-B26, (S)-4-(4-((7-methoxy-5-oxo-2,3,5,11a-tetrahydro-1H-benzo-[e]pyrrolo[1,2-a][1,4]diazepin-8-yl)oxy)butanamido)-1-methyl-N-(2-(piperidine-1-carbonyl)benzofuran-5-yl)-1H-pyrrole-2-carboxamide] | > 20 | > 20 | 0.25 (≈ 0.367 µM) | < 0.125 | 0.5 (≈ 0.734 µM) | 0.25 (≈ 0.367 µM) | < 0.125 | < 0.125 | 2 (≈ 2.94 µM) | 8 (≈ 11.8 µM) | 128 (≈ 188 µM) | 64 (≈ 94 µM) | 32 (≈ 47 µM) | 2 (≈ 2.94 µM) |  | 
COc1cc2c(cc1OCCCC(=O)Nc1cc(C(=O)Nc3ccc4sc(C(=O)N5CCOCC5)cc4c3)n(C)c1)N=C[C@@H]1CCCN1C2=O [PP-B16, (S)-4-(4-((7-methoxy-5-oxo-2,3,5,11a-tetrahydro-1H-benzo[e]pyrrolo[1,2-a][1,4]diazepin-8-yl)oxy)butanamido)-1-methyl-N-(2-(morpholine-4-carbonyl)benzo[b]thiophen-5-yl)-1H-pyrrole-2-carboxamide] | > 20 | > 20 | < 0.125 | < 0.125 | 0.5 (≈ 0.716 µM) | < 0.125 | < 0.125 | < 0.125 | 8 (≈ 11.4 µM) | 64 (≈ 91.6 µM) | 64 (≈ 91.6 µM) | 8 (≈ 11.4 µM) | 32 (≈ 45.8 µM) | 8 (≈ 11.4 µM) |  | 
CCOC(=O)c1nc(NC(=O)c2cc3cc(NC(=O)c4cc(NC(=O)CCCOc5cc6c(cc5OC)C(=O)N5CCC[C@H]5C=N6)cn4C)ccc3s2)cn1C [PP-B14, reference compound] |  |  | < 0.125 | < 0.125 | 1 (≈ 1.28 µM) | 0.5 (≈ 0.64 µM) | < 0.125 | < 0.125 | 64 (≈ 82 µM) | 128 (≈ 164 µM) | > 128 | 128 (≈ 164 µM) | 128 (≈ 164 µM) | 64 (≈ 82 µM) |  | 
COC(=O)c1cc(NC(=O)c2cc3cc(NC(=O)c4cc(NC(=O)CCCOc5cc6c(cc5OC)C(=O)N5CCC[C@H]5C=N6)cn4C)ccc3s2)cn1C [PP-B17, reference compound] |  |  | < 0.125 | < 0.125 | 0.25 (≈ 0.326 µM) | < 0.125 | < 0.125 | < 0.125 | 8 (≈ 10.4 µM) | 128 (≈ 167 µM) | 128 (≈ 167 µM) | 128 (≈ 167 µM) | 64 (≈ 83.6 µM) | 32 (≈ 41.8 µM) |  | 
COc1cc2c(cc1OCCCC(=O)Nc1cc(C(=O)Nc3ccc4sc(C(=O)N5CCCCC5)cc4c3)n(C)c1)N=C[C@@H]1CCCN1C2=O [PP-B22, (S)-4-(4-((7-methoxy-5-oxo-2,3,5,11a-tetrahydro-1H-benzo-[e]pyrrolo[1,2-a][1,4]diazepin-8-yl)oxy)butanamido)-1-methyl-N-(2-(piperidine-1-carbonyl)benzo[b]thiophen-5-yl)-1H-pyrrole-2-carboxamide] | > 20 | > 20 | 0.25 (≈ 0.359 µM) | < 0.125 | 1 (≈ 1.44 µM) | 0.5 (≈ 0.718 µM) | < 0.125 | < 0.125 | 8 (≈ 11.5 µM) | 128 (≈ 184 µM) | 128 (≈ 184 µM) | 128 (≈ 184 µM) | 64 (≈ 91.8 µM) | 8 (≈ 11.5 µM) |  | 
COc1cc2c(cc1OCCCC(=O)Nc1cc(C(=O)Nc3ccc4oc(C(=O)N5CCOCC5)cc4c3)n(C)c1)N=C[C@@H]1CCCN1C2=O [PP-A147, (S)-4-(4-((7-methoxy-5-oxo-2,3,5,11a-tetrahydro-1H-benzo[e]pyrrolo[1,2-a][1,4]diazepin-8-yl)oxy)butanamido)-1-methyl-N-(2-(morpholine-4-carbonyl)benzofuran-5-yl)-1H-pyrrole-2-carboxamide] |  |  | < 0.125 | < 0.125 | 0.25 (≈ 0.366 µM) | < 0.125 | < 0.125 | < 0.125 | 8 (≈ 11.7 µM) | 0.5 to 1 (≈ 0.732 to 1.46 µM) | > 128 | 32 to 64 (≈ 46.9 to 93.7 µM) | 64 (≈ 93.7 µM) | 8 (≈ 11.7 µM) | > 20 | > 20
COc1cc2c(cc1OCCCC(=O)Nc1cc(C(=O)Nc3ccc4oc(C(=O)N(C)C)cc4c3)n(C)c1)N=C[C@@H]1CCCN1C2=O [PP-A159, (S)—N-(2-(dimethylcarbamoyl)benzofuran-5-yl)-4-(4-((7-methoxy-5-oxo-2,3,5,11a-tetrahydro-1H-benzo[e]pyrrolo[1,2-a][1,4]-diazepin-8-yl)oxy)butanamido)-1-methyl-1H-pyrrole-2-carboxamide] | 18.5 | > 20 | < 0.125 | < 0.125 | < 0.125 | < 0.125 | < 0.125 | 0.5 (≈ 0.78 µM) | 4 (≈ 6.24 µM) | 0.5 (≈ 0.78 µM) | 128 (≈ 200 µM) | 16 (≈ 25 µM) | 32 to 64 (≈ 49.9 to 99.9 µM) | 4 (≈ 6.24 µM) |  | 
